The source of these data is patent US20220017483A1, “AMINOPYRIDINE COMPOUND, PREPARATION METHOD THEREFOR AND USE THEREOF” (SICHUAN-KELUN-BIOTECH BIOPHARMACEUTICAL CO., LTD, priority 2018, published 2022).

Where two headings read alike, the source gives them in different places.

One may read the Ki as the dissociation constant of the complex between target and ligand, obtained from inhibition or displacement. What is called Cmax is the highest concentration seen after dosing. In general, bioavailability refers to dose-corrected exposure relative to a reference, in per cent. A higher bioavailability goes with much systemic uptake.

In series [1] the target is T1, A1 receptor cell membrane (human origin) (Homo sapiens, UniProt P30542).
T1 construct: purchased PerkinElmer ES-010-M400UA
T1 sequence (P30542 1-326): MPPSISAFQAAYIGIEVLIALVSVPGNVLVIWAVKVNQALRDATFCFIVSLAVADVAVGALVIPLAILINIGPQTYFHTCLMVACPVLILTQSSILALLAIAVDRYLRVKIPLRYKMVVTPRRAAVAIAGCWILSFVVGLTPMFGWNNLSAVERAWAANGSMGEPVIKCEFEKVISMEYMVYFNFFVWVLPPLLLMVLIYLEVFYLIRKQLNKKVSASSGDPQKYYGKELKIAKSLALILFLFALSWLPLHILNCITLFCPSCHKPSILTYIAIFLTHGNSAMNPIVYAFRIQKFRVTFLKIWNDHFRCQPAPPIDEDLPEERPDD
Briefly: Competitive inhibition constant (Ki) for adenosine A1 receptor, [3H]-DPCPX radioligand binding. Conditions: [3H]-DPCPX 1.0 nM. As to the method:
Experimental Example 1: Determination of the Competitive Inhibition Constant (Ki) for Adenosine A1 and A2a Receptors
[^3H]-DPCPX: PerkinElmer, NET974250UC
A1 receptor cell membrane (human origin): PerkinElmer, ES-010-M400UA
A1 test buffer: 25 mM HEPES, 5 mM MgCl2, 1 mM CaCl2, 100 mM NaCl, pH7.4
A1 washing buffer: 25 mM HEPES, 5 mM MgCl2, 1 mM CaCl2, 100 mM NaCl, pH7.4
(§1) The A1 receptor cell membrane was diluted to 0.025 μg/μl with the A1 test buffer and the A2a receptor cell membrane was diluted to 0.05 μg/μl with the A2a test buffer to obtain an A1 receptor cell membrane dilution and an A2a receptor cell membrane dilution.
(§2) The tested compound and CGS15943 were gradiently diluted with DMSO. 1 μl test compound, high-value control (0.5% DMSO), low-value control (1000 nM CGS15943) were added to a 96-well plate, wherein each well was added with 100 μl A1 receptor cell membrane dilution (containing 2.5 μg cell membrane) to obtain an A1 detection plate. Through the same steps, 100 μl A2a receptor cell membrane dilution (containing 5.0 μg cell membrane) was added to each well of a 96-well plate to obtain an A2a detection plate.
100 μl of radioisotope-labelled ligand [^3H]-DPCPX (diluted in A1 test buffer, working concentration 1.0 nM) was added to the A1 detection plate, and 100 μl of radioisotope-labelled ligand [^3H]-CGS-21680 (diluted in A2a test buffer, working concentration 6.0 nM) was added to the A2a detection plate. The A1 and A2a detection plates were sealed with a tap, and incubated at room temperature for 1 h and 2 h, respectively.
(§3) Unifilter-96 GF/C filter plate was prepared. The Unifilter-96 GF/C filter plate was added with 50 μl 0.3% PEI in each well, and incubated at room temperature for no less than 0.5 h.
(§4) After the incubation, the reaction solutions in the A1 detection plate and the A2a detection plate were transferred to two Unifilter-96 GF/C filter plates. The filter plates were washed with the corresponding pre-cooled washing buffers, then oven dried. After sealing the bottom of the filter plates, 50 μl of Microscint 20 cocktail scintillation fluid was added. After sealing the top of the filter plates, the plates were read in the counter MicroBeta2 Reader.
(§5) Data analysis: The inhibition rate was calculated according to the following formula:
(§6) Inhibition rate %=100−(the signal value of the tested wells−the signal average of the low-value control)/(the signal average of the high-value control−the signal average of the low-value control)*100.
(§7) IC50 was fitted by EXCEL XLfit. The competitive inhibition constant (Ki) was calculated according to the formula: Ki=IC50/(1+the concentration of the isotope-labelled ligands/Kd); Kd is the dissociation constant of the isotope-labeled ligands.

Series [2] concerns the target T2, A2a receptor cell membrane (human origin) (Homo sapiens, UniProt P29274).
T2 construct: purchased PerkinElmer RBHA2AM400UA
Briefly: Competitive inhibition constant (Ki) for adenosine A2a receptor, [3H]-CGS-21680 radioligand binding. The conditions noted are these: for Ki(A1)/Ki(A2a): selectivity ratio A1 over A2a. On the procedure: A2a receptor cell membrane (human origin): PerkinElmer, RBHA2AM400UA
A2a test buffer: 50 mM Tris-HCl, 10 mM MgCl2, 1 mM EDTA, pH7.4
as §1, §2
The A1 and A2a detection plates were sealed with a tap, and incubated at room temperature for 1 h and 2 h, respectively.
as §3, §4, §5, §6, §7

Series [3] is described as follows: Pharmacokinetics in rats, intravenous injection (IV). Conditions: male, SD, rat, 1 mg/kg, plasma. The class given is in vivo. On the procedure:
(§8) Experimental Example 2: Pharmacokinetics (PK) and Brain Tissue Distribution Study in Rats
(§9) The compounds of the present invention and control compound 2 were administered to male SD rats by intravenous injection (IV) and intragastric administration (PO) respectively to study the pharmacokinetic characteristics.
(§10) The compounds of the present invention and control compound 2
(§11) synthesized according to the prior art process) were administered by IV and PO. IV and PO dosages were 1 mg/kg and 5 mg/kg, respectively. The vehicle for the IV administration of the compounds of the present invention was a mixture of 5% DMSO:5% Solutol (polyethylene glycol-15 hydroxystearate):90% physiological saline; and the vehicle for the IV administration of control compound 2 was a mixture of 10% DMSO:10% Solutol (polyethylene glycol-15 hydroxystearate):80% physiological saline. The vehicle for the PO administration of the compounds was 0.5% MC (sodium methylcellulose). Blood was collected before IV administration (0 h), and at time points of 0.083, 0.25, 0.5, 1, 2, 4, 6, 8, 24 h or longer (for example, adding time points of 32 and 48 h) after IV administration; and blood was collected before PO administration (0 h), and at time points of 0.25, 0.5, 1, 2, 4, 6, 8, 24 h or longer (for example, adding time points of 32 and 48 h) after PO administration. EDTA.K2 was used for anticoagulation of the blood, and a plasma sample was obtained after centrifugation. Brain tissue homogenates were taken at 0.25, 0.5, 1, and 8 hours after PO administration (3 animals for each time point). The plasma samples and brain tissue homogenate samples were stored at −80° C. Plasma samples and brain tissue homogenates were subjected to analysis by LC-MS/MS, after protein precipitation. The pharmacokinetic parameters were calculated by using non-compartmental model with WinNonlin 6.3 software.

A short description of series [4]: Pharmacokinetics and brain tissue distribution in rats, intragastric administration (PO). In kind it is in vivo, male SD rats. Conditions: rat; for bioavailability / AUC(0-t): male, SD, plasma; for bioavailability: po, orally administered 5 mg/kg compared to intravenous 1 mg/kg; for AUC(0-t) / Plasma AUClast/Brain AUClast / AUClast (brain) / capability to penetrate the blood-brain barrier / exposure to brain tissue (in words): PO, 5 mg/kg; for AUC(0-t): read-out: AUClast (plasma); for AUClast (brain): brain tissue homogenate. On the procedure:
as §8, §9, §10, §11

Setting [5] is: human A2a receptor cell membrane, [3H]-CGS-21680 6.0 nM, read-out: Ki(A2a).

T2 sequence (P29274 whole entry): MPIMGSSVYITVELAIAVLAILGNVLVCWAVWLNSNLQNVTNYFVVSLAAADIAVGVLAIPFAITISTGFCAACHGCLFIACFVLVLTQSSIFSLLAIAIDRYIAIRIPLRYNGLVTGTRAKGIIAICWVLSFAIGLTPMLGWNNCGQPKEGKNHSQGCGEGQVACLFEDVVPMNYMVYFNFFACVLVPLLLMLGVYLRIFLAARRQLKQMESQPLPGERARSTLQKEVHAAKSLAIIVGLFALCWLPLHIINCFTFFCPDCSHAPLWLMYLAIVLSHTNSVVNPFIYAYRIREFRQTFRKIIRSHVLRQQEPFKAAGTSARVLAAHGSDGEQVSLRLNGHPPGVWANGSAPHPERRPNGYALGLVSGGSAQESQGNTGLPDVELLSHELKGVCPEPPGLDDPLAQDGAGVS

On to `Cc1ncnc2ccc(-c3cc(C(N)=O)c(N)nc3-c3ccc(F)cc3)cc12` [Compound 6, 2-amino-6-(4-fluorophenyl)-5-(4-methylquinazolin-6-yl)nicotinamide], for which, in series [1], the Ki was determined as 2190 nM. Also, the inhibition constant Ki in series [2] (setting [5]) amounted to 3.4 nM. The “Ki(A1)/Ki(A2a)” value in series [2] is recorded as 644.6. In series [3], this compound showed an AUC(0-t) of 6660 ng·h/mL and a maximum concentration (Cmax) of 1250 ng/mL. Besides, in series [4], the bioavailability amounted to 73.9%, the AUC(0-t) worked out at 24700 ng·h/mL, the “Plasma AUClast/Brain AUClast” value is listed as 73/1 and the “AUClast (brain)” value is 337 (h*ng/g,.
In series [1], `CNC(=O)Cn1cc(-c2cc(-c3ccc4ncnc(C)c4c3)c(-c3ccc(F)cc3)nc2N)cn1` [Compound 19, 2-(4-(2-amino-6-(4-fluorophenyl)-5-(4-methylquinazolin-6-yl)-pyridin-3-yl)-1H-pyrazol-1-yl)-N-methylacetamide] had a Ki of 513 nM. In series [2] (setting [5]), the Ki was determined as 9.9 nM. Besides, the “Ki(A1)/Ki(A2a)” value in series [2] was determined as 51.8. In series [3], this compound gave an AUC(0-t) of 3940 ng·h/mL and a Cmax of 2960 ng/mL. Moreover, in series [4], the bioavailability worked out at 95.2%, the AUC(0-t) is 18800 ng·h/mL, the “Plasma AUClast/Brain AUClast” value is reported as 776/1 and the “AUClast (brain)” value was 24.2 (h*ng/g,.
`Cc1ncnc2ccc(-c3cc(-c4cnn(CCC(N)=O)c4)c(N)nc3-c3ccc(F)cc3)cc12` [Compound 20, 3-(4-(2-amino-6-(4-fluorophenyl)-5-(4-methylquinazolin-6-yl)-pyridin-3-yl)-1H-pyrazol-1-yl)propionamide]: in series [1], the inhibition constant Ki was found to be 963 nM. Also, in series [2], affinity was put at a Ki of 14 nM and the “Ki(A1)/Ki(A2a)” value is 68.8. In series [3], this compound gave an AUC(0-t) of 2530 ng·h/mL and a Cmax of 3330 ng/mL. Also, in series [4], the AUC(0-t) is 1900 ng·h/mL, the “capability to penetrate the blood-brain barrier / exposure to brain tissue (in words)” value was “only very low exposure to brain tissue” and the “AUClast (brain)” value is “undetectable”.
In series [1], `Cc1ncnc2ccc(-c3cc(-c4cnn(CC(C)(C)O)c4)c(N)nc3-c3ccc(F)cc3)cc12` [Compound 21, 1-(4-(2-amino-6-(4-fluorophenyl)-5-(4-methylquinazolin-6-yl)-pyridin-3-yl)-1H-pyrazol-1-yl)-2-methylpropan-2-ol] showed a Ki of 1420 nM. In addition, the Ki in series [2] (setting [5]) was 13.2 nM. The “Ki(A1)/Ki(A2a)” value in series [2] is 108.0. Also, in series [3], the AUC(0-t) worked out at 2340 ng·h/mL and the peak concentration (Cmax) is 1340 ng/mL. Further, in series [4], the bioavailability was 68.5%, the AUC(0-t) stood at 8010 ng·h/mL, the “Plasma AUClast/Brain AUClast” value is recorded as 331/1 and the “AUClast (brain)” value is 24.2 (h*ng/g,.
Take `Cc1ncnc2ccc(-c3nnc(N)nc3-c3ccc(F)cc3)cc12` [Control compound 2, reference compound]: in series [3], the AUC(0-t) worked out at 518 ng·h/mL and the peak level (Cmax) was 913 ng/mL. In addition, in series [4], the bioavailability is 46.5%, the AUC(0-t) was 1200 ng·h/mL, the “capability to penetrate the blood-brain barrier / exposure to brain tissue (in words)” value is given as “significantly stronger” and the “AUClast (brain)” value was 1013 (h*ng/g,.
